# Data as given in ChEMBL document CHEMBL4616697, “Discovery of Adamantane Carboxamides as Ebola Virus Cell Entry and Glycoprotein Inhibitors” (ACS Med Chem Lett, 2020).
# Active and inactive are the calls of the source. The rule behind the calls is not given here.
# Key:
# [1] = Inhibition of glycoprotein in VSV pseudotyped Ebolavirus infected in African green monkey Vero cells assessed as reduction in virus entry incubated for 24 hrs by luciferase reporter gene assay; assay type: cell-based
# Vero [2] = experiment: Inhibition of glycoprotein in VSV pseudotyped Ebolavirus infected in African green monkey Vero cells assessed as reduction in virus entry at 5 uM incubated for 24 hrs by luciferase reporter gene assay relative to control; assay type: cell-based
# Vero [3] = experiment: Inhibition of glycoprotein in pseudotyped Vesicular stomatitis virus infected in African green monkey Vero cells assessed as reduction in virus entry at 5 uM incubated for 24 hrs by luciferase reporter gene assay; assay type: cell-based
# [4] = Kinetic aqueous solubility of compound in PBS at pH 6.4 to 7.5 measured after 2 hrs by spectrophotometry analysis; assay type: physicochemical; details: read-out: Kinetic_solubility
# [5] = Metabolic stability in Cynomolgus monkey liver microsomes assessed as parent compound remaining at 1 uM pretreated for 30 mins followed by NADPH addition and measured after 60 mins by LC-MS/MS analysis; assay type: ADME, Macaca fascicularis, Microsome; details: read-out: Stability
# [6] = Aqueous solubility of compound in PBS at pH 7.4 measured after 2 hrs by spectrophotometry analysis; assay type: physicochemical
# [7] = Metabolic stability in human liver microsomes assessed as parent compound remaining at 1 uM pretreated for 30 mins followed by NADPH addition and measured after 60 mins by LC-MS/MS analysis; assay type: ADME, Microsome; details: microsomes, 1 h, 1 µM
# [8] = Metabolic stability in mouse liver microsomes assessed as parent compound remaining at 1 uM pretreated for 30 mins followed by NADPH addition and measured after 60 mins by LC-MS/MS analysis; assay type: ADME, Microsome; details: read-out: Stability
# [9] = Cytotoxicity against African green monkey Vero E6 cells assessed as reduction in cell viability incubated for 10 days by neutral red dye based spectrophotometry analysis; design: species or system Vero C1008; details: chlorocebus sabaeus
# [10] = Selectivity index, ratio of CC50 for African green monkey Vero E6 cells assessed as reduction in cell viability incubated for 10 days by neutral red dye based spectrophotometry analysis to EC90 for wild type Ebolavirus infected in African green monkey Vero E6 cells assessed as reduction in viral replication by virus yield reduction assay; assay type: toxicity, Vero C1008; details: read-out: Selectivity Index
# Ebolavirus = experiment: Antiviral activity against wild type Ebolavirus infected in African green monkey Vero E6 cells assessed as inhibition of viral entry compound treated with primary viral infected cells for 60 mins and after 3 days post-infection measured following 10 days of compound incubation with fresh cells infected with primary culture supernatants by virus yield reduction assay; assay type: functional; details: Orthoebolavirus, Vero C1008
SMILES,"EC50 ([1]; Orthoebolavirus, Vero, 24 h) [nM]",solubility kinetic at 2 h [4] [µM],also measured
O=C(NC1CCN(Cc2ccccc2)CC1)C12CC3CC(CC(C3)C1)C2,3900,> 100,inhibition (Vero [2]): > 50%; inhibition (Vero [3]): inactive
O=C(N1CCc2ccccc2C1)C12CC3CC(C1)CC(c1ccccc1)(C3)C2,2300,> 100,–
O=C(NC1CCNCC1)C12CC3CC1CC(c1ccccc1)(C3)C2 (centres undefined),330,> 100,–
c1ccc(C23CC4CC(CC(CNC5CCNCC5)(C4)C2)C3)cc1,470,> 100,–
O=C(NC1CCNCC1)C12CC3CC(C1)CC(c1ccc(Cl)cc1)(C3)C2,190,> 100,–
C[C@@]12C[C@H]3C[C@@](C(=O)NC4CCNCC4)(C1)C[C@](c1ccccc1)(C3)C2,–,–,EC50 ([1]; vero): 240 nM
C[C@]12C[C@@H]3C[C@](C(=O)NC4CCNCC4)(C1)C[C@@](c1ccccc1)(C3)C2,–,–,"EC50 ([1]; vero): 28 nM; remaining at 1 h, 1 µM [5]: 83%; solubility at 2 h [6]: > 20 mg/mL; Stability [7]: 81%; remaining at 1 h, 1 µM [8]: 86%; CC50 at 240 h [9]: 71000 nM; selectivity ratio at 240 h [10]: 34; EC90 (Ebolavirus): 2100 nM"
O=C(N1CCNCC1)C12CC3CC(C1)CC(c1ccccc1)(C3)C2,260,> 100,–
COc1ccc(C23CC4CC(CC(C(=O)NC5CCNCC5)(C4)C2)C3)cc1,380,> 100,–
CC12CC3(C)CC(C(=O)NC4CCNCC4)(C1)CC(c1ccccc1)(C2)C3,320,> 100,–
O=C(NC1CCN(Cc2ccccc2)CC1)C12CC3CC(C1)CC(c1ccccc1)(C3)C2,380,> 100,–
O=C(NC1CCNCC1)C12CC3CC(C1)CC(c1ccc(F)cc1)(C3)C2,310,> 100,–
O=C(NC12CC3CC(C1)CC(c1ccccc1)(C3)C2)C1CCNCC1,> 1000,> 100,–
O=C(NC1CCNCC1)C1C2CC3CC1CC(c1ccccc1)(C3)C2 (centres undefined),180,> 100,–
CN1CCC(N(C)C(=O)C23CC4CC(C2)CC(c2ccccc2)(C4)C3)CC1,280,> 100,–
O=C(NC1CCNCC1)C12CC3CC(C1)CC(c1ccc(O)cc1)(C3)C2,1700,> 100,–
CN1CCC(NC(=O)C23CC4CC(C2)CC(c2ccccc2)(C4)C3)CC1,160,> 100,–
NC1CCN(C(=O)C23CC4CC(C2)CC(c2ccccc2)(C4)C3)CC1,120,> 100,–
O=C(CC12CC3CC(C1)CC(c1ccccc1)(C3)C2)NC1CCNCC1,490,> 100,–
O=C(NC1CCNCC1)NC12CC3CC(C1)CC(c1ccccc1)(C3)C2,> 1000,> 100,–
O=C(NC1CCNCC1)C12CC3CC(C1)CC(c1ccc([N+](=O)[O-])cc1)(C3)C2,> 3000,> 100,–
